{"source": "patent US20130324413A1", "about": "“METHOD FOR PROMOTING PLANT GROWTH” (SUMITOMO CHEMICAL COMPANY, LIMITED, priority 2011, published 2013)", "assay_type_in_all_cases": "in vivo", "key": {"[1]": {"tested_on": "corn seeds (cultivar: Kuromochi)", "experiment": "Test Example 6: corn seed coating, low-temperature stress, fresh weight of above-ground part", "conditions": "for Average fresh weight of above-ground part: low-temperature stress 3±2° C. 7 days, non-treated 1.18 g", "experimental": "A blank slurry solution containing 5% (V/V) color coat red (Becker Underwood, Inc.), 5% (V/V) CF-Clear (Becker Underwood, Inc.) and 0.4% Maxim XL (Syngenta) was prepared. […] In a 50-ml centrifuge tube (manufactured by BD Japan), 0.48 ml of the slurry solution was placed for each 20 g of corn seeds (cultivar: Kuromochi) and stirred until the solution was dried, thereby coating the seeds. As a control, seeds were coated with the blank slurry solution and used for a non-treated group. Two treated corn seeds were sown in the culture soil (AISAI) in each plastic pot (55 mm in diameter×58 mm in height) and grown for 4 days under the following conditions: temperature, 27° C.; illuminance, 5,000 lux; day length, 16 hours. These were subjected to the test. The pots at day 4 after the sowing were placed in a phytotron under the following conditions in order to expose the plants to low-temperature stress for 7 days. Conditions: “temperature, 3±2° C.; day length, 16 hours; illuminance, about 5,000 lux; humidity, 35 to 80%” The plants were grown for another 7 days under the following conditions: temperature, 27° C.; humidity, 50 to 75%, illuminance, about 5,000 lux; day length, 16 hours. Then the fresh weight of the above-ground part of the plants was measured. The experiment was performed in four replications for each treatment condition and the average weight per individual was calculated."}, "[2]": {"tested_on": "Corn (cultivar: PIONEER 120 31P41)", "experiment": "Test Example 13: corn soil irrigation, low-temperature stress, growth and chlorophyll", "conditions": "soil irrigation 20 ml, low-temperature stress 2 to 4° C. 5 days", "experimental": "Corn seeds (cultivar: PIONEER 120 31P41) are sown in the culture soil (AISAI) in plastic pots (55 mm in diameter×58 mm in height) and grown for 7 days under the following conditions: temperature, 20 to 25° C.; humidity, 50 to 75%; illuminance, about 5,000 lux; day length, 16 hours. A DMSO solution of compound (1b) at a 1,000-fold concentration relative to each test concentration is diluted with distilled water to prepare a test soultion. Twenty (20) ml of the test solution obtained is applied around the base of each plant by soil irrigation, and then the plants are grown for two days under the following conditions: temperature, 27° C., humidity, 50 to 75%; illuminance, about 5,000 lux; day length 16 hours. This group is the present compound-treated group. The group to which 20 ml of a 0.1% aqueous DMSO solution is applied by soil irrigation in place of the DMSO solution of compound (1b) is used as the non-treated group. The plants subjected to the soil irrigation are grown for 5 days under the following conditions, to expose the plants to low-temperature stress: temperature, 2 to 4° C.; humidity, 40 to 70%, illuminance, about 5,000 lux; day length, 16 hours in a phytotron. After the exposure to low-temperature stress, the plants are grown for 4 days under the conditions of a temperature off20 to 25° C., a humidity of 50 to 75%, an illuminance of about 5,000 lux, and a day length of 16 hours. Then the plant weight and the length of true leaves are measured. Also, after the exposure to low-temperature stress, the plants are grown for 1 day under the conditions of a temperature of 20 to 25° C., a humidity of 50 to 75%, an illuminance of about 5,000 lux, and a day length of 16 hours. Then the chlorophyll fluorescence (Fv/Fm) is measured using a pulse modulation chlorophyll fluorometer (MAXI-IMAGING-PAM, WALZ). The chlorophyll content is measured using a chlorophyll gauge (SPAD-502; manufactured by KONICA MINOLTA)."}, "[3]": {"tested_on": "Corn (cultivar: Hughes 5813)", "experiment": "Test Example 2: corn seed treatment, amount of harvested grains", "conditions": "grown 226 days", "experimental": "Corn (cultivar: Hughes 5813) seeds were separately treated with 25 μg or 125 μg of compound (1b) for each seed. The amount of the compound required for the treatment was determined by calculation assuming 4,000 grains per kg of seeds. The seeds were coated using seed treatment machine HEGE11(produced by Hans-Ulrich Hege). All the seed treatments included Maxim XL (0.167 ounces/100 pounds), Thiram 42S (2.5 ounces/pound), and Cruiser (containing 0.25 mg/seed of thiamethoxam) and CF-Clear polymer at a concentration of 0.5 ounces/pound. The treated seeds were sown and grown for 226 days, and the corn plants were harvested to obtain grains. […] During the testing, no diseases were observed that affected the yield in the present compound-treated group and the non-treated group."}, "[4]": {"tested_on": "oilseed rape (Brasicca napus)", "experiment": "Test Example 11: oilseed rape field application, yield of the seeds", "conditions": "flowable formulation, 250 g per hectare at day 240 (BBCH 63); evaluated day 334; non-treated 4.25 tons/hectare", "source_text": "Seeds of oilseed rape (Brasicca napus) were sown at 5.5 kg seeds per hectare and grown. At day 240 after the sowing, at growth stage 63, according to the Biologische Bundesanstalt, Bundessortenamt and CHemical industry (BBCH) scale, the flowable formulation prepared as described in Formulation Example 2 containing compound (1b) was applied in an amount of 250 g per hectare. A group for the treatment measured 2 m×12 m. This group was the present compound-treated group. A group treated with the formulation without compound (1b) was used as the non-treated group, in which plants were cultivated in the same manner as in the treated group.\nAt day 334 after the sowing, the yield of the seeds was evaluated. As a result, the yield calculated presuming 9% seed water content was 4.55 tons/hectare in the present compound-treated group, while it was 4.25 tons/hectare in the non-treated group. During the testing, no diseases were observed that affected the yield either in the present compound-treated or non-treated group."}}}
{"smiles": "CNC(=O)C(OC)c1ccccc1COc1cc(C)ccc1C", "note": "(racemic) [Compound (1b), N-methyl-2-[2-(2,5-dimethylphenoxy)methyl]phenyl-2-methoxyacetamide]", "values": [{"measurement": "Average fresh weight of above-ground part", "setting": "[1]; seed coating 10 g", "value": 1.33, "unit": "g"}, {"measurement": "Average fresh weight of above-ground part", "setting": "[1]; seed coating 25 g", "value": 1.30, "unit": "g"}, {"measurement": "Average fresh weight of above-ground part", "setting": "[1]; seed coating 50 g", "value": 1.29, "unit": "g"}, {"measurement": "Average fresh weight of above-ground part", "setting": "[1]; seed coating", "value": 1.34, "unit": "g"}, {"measurement": "fresh weight of the above-ground part as compared with the control group", "setting": "[1]; plants exposed to low-temperature stress, 10 g to 50 g per 100 kg of seeds", "value": "an increase"}, {"measurement": "chlorophyll fluorescence (Fv/Fm) as compared with the non-treated group", "setting": "[2]; then 1 day growth", "value": "increases"}, {"measurement": "length of true leaves as compared with the non-treated group", "setting": "[2]; then 4 days growth", "value": "increased"}, {"measurement": "plant weight as compared with the non-treated group", "setting": "[2]; then 4 days growth", "value": "increased"}, {"measurement": "chlorophyll content as compared with the non-treated group", "setting": "[2]; chlorophyll gauge SPAD-502", "value": "increases"}, {"measurement": "increase in amount of the harvested grains as compared with the non-treated group", "setting": "[3]; seeds treated with 25 μg per seed", "value": 11, "unit": "%"}, {"measurement": "increase in amount of the harvested grains as compared with the non-treated group", "setting": "[3]; seeds treated with 125 μg per seed", "value": 9, "unit": "%"}, {"measurement": "yield of the seeds calculated presuming 9% seed water content", "setting": "[4]", "value": 4.55, "unit": "tons/hectare"}]}
